From patent US5124350A, “Leukotriene B4 antagonists” (G. D. Searle & Co., priority 1990, dated 1992)

What was measured:
LTB4 Receptor = biological target: T1, LTB4 Receptor (Homo sapiens, UniProt Q15722); assay: LTB4 Receptor Binding Assay ((3H) LTB4, human neutrophils); conditions: relative to the compound of Example 1 (b), defined as 1.0
T1 construct: Neutrophils were purified from venous blood of normal human donors; endogenous in cells; host or cells: neutrophils from venous blood of normal human donors
Method: (§1) Neutrophils were purified from venous blood of normal human donors using standard techniques of dextran sedimentation, centrifugation on Ficoll-paque® (Pharmacia) or Histopaque® sterile solution (Sigma) and hypotonic lysis of erythrocytes (Boyum, A., Isolation of Leukocytes From Human Blood: Further Observations. Scand. J. Lab. Clin. Invest., 21 (Suppl. 97): 31, 1968). The purity of isolated neutrophils was>95%.
Neutrophils (4-6×10^6) in 1 ml Hanks' balanced salt solution (HBSS) containing 10 mM HEPES buffer , pH 7.4 and […] nordihydroguaiaretic acid were incubated with 0.6×10^-9 M (^3 H) LTB4 in the presence or absence of test compounds. The incubation was carried out at 0° C. for 45 minutes and terminated by adding 5ml of ice-cold HBSS followed by rapid filtration of the incubation mixture under vacuum through GF/C glass fiber filters. The filters were further washed with 10 ml HBSS and radioactivity was determined. Specific binding was defined as the difference between total binding and nonspecific binding which was not displaced by 10^-7 M unlabeled LTB4. All data refer to specific binding.

[1] = system: Human neutrophils (LTB4 chemotaxis); assay: Modified Boyden Chamber Chemotaxis, LTB4; format: cell-based; conditions: relative to the compound of Example 1 (b), defined as 1.0; 3×10^-8 M LTB4
Excerpt: as §1
(§2) Human neutrophils were isolated from citrated peripheral blood using standard techniques of dextran sedimentation, followed by centrifugation on Histopaque® sterile solution (Sigma) or Ficoll-paque® (Pharmacia) and hypotonic lysis of erythrocytes. A final cell suspension of 3.4×10^6 neutrophils/ml of HEPES-buffered Hanks' balanced salt solution (HBSS, pH 7.3) was added to the upper well (0.8 ml ) of a modified Boyden chamber (blind well). The lower well (0.2 ml), separated by a polycarbonate membrane (Nucleopore Corp.), contained HBSS or 3×10^-8 M LTB4 in the presence or absence of test compound. […] The number of neutrophils migrating into the lower chamber in the absence of chemoattractant was subtracted from the number of cells migrating in the presence of a chemoattractant. Inhibition of chemotaxis by test compounds was expressed as percent inhibition relative to uninhibited control.
(§3) Data are expressed as potency relative to the compound of Example i(b ), 7-[3,(4-acetyl-3-methoxy-2propylphenoxy)propoxy]-3,4-dihydro-8-propyl-2H-1-benzopyran-2-carboxylic acid, which is disclosed in U.S. Pat. No. 4,889,871.

[2] = system: Human neutrophils (fMLP chemotaxis); assay: Modified Boyden Chamber Chemotaxis, fMLP; format: cell-based; conditions: relative to the compound of Example 1 (b), defined as 1.0
Excerpt: [The procedure below names another target; the source lists this target under the same test.] as §1, §2, §3

T1 sequence (Q15722 whole entry): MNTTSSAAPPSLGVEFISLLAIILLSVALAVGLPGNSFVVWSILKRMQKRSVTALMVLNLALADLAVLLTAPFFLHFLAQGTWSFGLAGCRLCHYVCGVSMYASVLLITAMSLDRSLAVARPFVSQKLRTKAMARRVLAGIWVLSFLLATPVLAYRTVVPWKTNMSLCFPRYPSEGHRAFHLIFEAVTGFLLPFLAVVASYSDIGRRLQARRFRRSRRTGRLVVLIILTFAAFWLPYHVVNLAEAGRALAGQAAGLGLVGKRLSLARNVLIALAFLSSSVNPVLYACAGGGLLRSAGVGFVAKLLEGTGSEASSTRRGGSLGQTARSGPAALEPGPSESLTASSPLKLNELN

Structure (SMILES)	Relative Potency, LTB4 Receptor Binding (LTB4 Receptor)	Relative Potency, Chemotaxis LTB4 [1]	Relative Potency, Chemotaxis fMLP [2]
CCCc1c(OCCCOc2ccc(C(=O)NC)c(OC)c2CCC)cccc1OCC(=O)O [Example 46, [3-[3-[3-Methoxy-4-[(methylamino)carbonyl]-2-propylphenoxy]propoxy]-2-propylphenoxy]acetic acid]	0.71	0.58	≤ 0.048
CCCc1c(OCCCOc2ccc(C(=O)NC)c(OC)c2CCC)ccc2c1OC(CCC(=O)O)CC2 (stereo not drawn) [Example 14, 3,4-Dihydro-7-[3-[3-methoxy-4-[(methylamino)carbonyl]-2-propylphenoxy]propoxy]-8-propyl-2H-1-benzopyran-2-propanoic acid]	4.0	4.1	0.52
C=CCc1c(OCCCOc2cccc(OCC(=O)O)c2CCC)ccc(C(=O)N2CCCC2)c1OC [Example 59, [3-[3-[3-Methoxy-2-(2-propenyl)-4-(1-pyrrolidinylcarbonyl)phenoxy]propoxy]-2-propylphenoxy]acetic acid]	0.04	< 0.9	–
CCCc1c(OCCCOc2ccc(C(N)=O)c(OC)c2CCC)cccc1OCC(=O)O [Example 43, [3-[3-[4-(Aminocarbonyl)-3-methoxy-2-propylphenoxy]propoxy]-2-propylphenoxy]acetic acid]	0.83	1.1	≤ 0.63
C=CCc1c(OCCCOc2cccc(OCC(=O)O)c2CCC)ccc(C(N)=O)c1OC [Example 56, [3-[3-[4-(Aminocarbonyl)-3-methoxy-2-(2-propenyl)phenoxy]propoxy]-2-propylphenoxy] acetic acid]	1.0	2.6	< 0.63
CCCc1c(OCCCOc2ccc(C(=O)NC)c(OC)c2CC2CC2)ccc2c1OC(CCC(=O)O)CC2 (stereo not drawn) [Example 62, 7-[3-[2-(Cyclopropylmethyl)-3-methoxy-4-[(methylamino)carbonyl]phenoxy]propoxy]-3,4-dihydro-8-propyl-2H-1-benzopyran-2-propanoic acid]	8.5	17.4	0.69
CCCc1c(OCCCOc2ccc(C(=O)N3CCCC3)c(OC)c2CCC)cccc1OCC(=O)O [Example 50, [3-[3-[3-Methoxy-2-propyl-4-(1-pyrrolidinylcarbonyl)phenoxy]propoxy]2-propylphenoxy]acetic acid]	0.04	0.05	< 0.48

More lines, main results first:

Relative Potency, LTB4 Receptor Binding (LTB4 Receptor)	Structure (SMILES)	Relative Potency, Chemotaxis LTB4 [1]	Relative Potency, Chemotaxis fMLP [2]
2.1	C=CCc1c(OCCCOc2ccc3c(c2CCC)OC(C(=O)O)CC3)ccc(C(=O)NC)c1OC (stereo not drawn) [Example 26, 3,4-Dihydro-7-[3-[3-methoxy-4-[(methylamino)carbonyl]-2-(2-propenyl)phenoxy]propoxy]-8-propyl 2H-1-benzopyran-2-carboxylic acid]	7.6	0.95
0.81	CCCc1c(OCCCOc2ccc(C(=O)NC)c(OC)c2CCC)ccc2c1OC(C(=O)O)CC2 (stereo not drawn) [Example 35, 3,4-Dihydro-7-[3-[3-methoxy-2-propyl-4-[(methylamino)carbonyl]phenoxy]propoxy]-8-propyl-2H-1-benzopyran-2-carboxylic acid]	2.6	–
2.1	C=CCc1c(OCCCOc2ccc3c(c2CCC)OC(C(=O)O)CC3)ccc(C(N)=O)c1OC (stereo not drawn) [Example 32, 7-[3-[4-(Aminocarbonyl)-3-methoxy-2-(2-propenyl)phenoxy]propoxy]-3,4-dihydro-8-propyl-2H-1-benzopyran-2-carboxylic acid]	4.0	1.5
1.0	C=CCc1c(OCCCOc2ccc3c(c2CCC)OC(C(=O)O)CC3)ccc(C(=O)N2CCCC2)c1OC (stereo not drawn) [Example 29, 3,4-Dihydro-7-[3-[3-methoxy-2-(2-propenyl)-4-(1-pyrrolidinylcarbonyl)phenoxy]propoxy]-8-propyl-2H-1-benzopyran-2-carboxylic acid]	0.18	–
5.3	CCCc1c(OCCCOc2ccc(C(=O)NC)c(OC)c2CC2CC2)ccc2c1OC(C(=O)O)CC2 (stereo not drawn) [Example 19, 7-[3-[2-(Cyclopropylmethyl)-3-methoxy-4-[(methylamino)carbonyl]phenoxy]propoxy]-3,4-dihydro-8-propyl-2H-1-benzopyran-2-carboxylic acid]	16.9	1.57
8.9	C=CCc1c(OCCCOc2ccc3c(c2CCC)OC(CCC(=O)O)CC3)ccc(C(=O)NC)c1OC (stereo not drawn) [Example 9, 3,4-Dihydro-7-[3-[3-methoxy-4-[(methylamino)carbonyl]-2-(2-propenyl)phenoxy]propoxy]8-propyl-2H-1-benzopyran-2-propanoic acid]	12.3	0.38
